Results published in patent publication US5177112A, “Substituted 2-aminotetralins” (Whitby Research, Inc., priority 1991, dated 1993).
Read-outs that look alike come from different tables or passages of the source. Each block holds one molecule with its values, some of them ahead of it.

Assays:
ocular function = conditions: in vivo; cited from earlier work
intraocular pressure [1] = conditions: man; eyedrops; cited from earlier work
intraocular pressure [2] = conditions: rabbits; cited from earlier work
D-2 dopamine receptor [3] = target: T1, D-2 dopamine receptor (Bos taurus, UniProt P20288); test: displacement of specific D-2 dopamine receptor binding of tritiated racemic 2-(N-propyl-N-2-thienylethylamino)-5-hydroxytetralin; design: homogenates of calf brain corpus striatum; from tissue; host or cells: calf brain corpus striatum homogenate; species or system calf
Description: The pharmacological activity of the product of Example 2 was determined by examining its ability to displace the specific D-2 dopamine receptor binding of a tritium-containing racemic mixture of 2-(N-propyl-N-2-thienylethylamino)-5-hydroxytetralin to homogenates of calf brain corpus striatum.

intraocular pressure [4] = conditions: monkeys; cited from earlier work
D2 receptors = target: T2, D2 receptors (Bos taurus, UniProt P20288); test: D2 receptor specific binding, [3H]-Spiperone; design: species or system bovine; conditions: for Ki: bovine caudate nuclei, [3H]-Spiperone, 30 nM ketanserin, 75 minutes at room temperature; for increase in selectivity for D2 receptors: compared to the thienyl compound
T2 construct: The caudate nuclei were dissected out and homogenized in Buffer A; from tissue; host or cells: bovine caudate nuclei membranes (brains from a local slaughterhouse)
Description: (§1) Dopamine receptor assays: Specific binding studies to test the affinity of the compounds for D1, D2 and α2 receptors were conducted using bovine caudate nuclei prepared as follows:
(§2) Bovine brains were obtained fresh from a local slaughterhouse. The caudate nuclei were dissected out and homogenized in Buffer A (50 mM Tris; 1 mM Na2 -EDTA; 5 mM KCl; 1 mM MgCl2; 2 mM CaCl2; pH 7.4) using a Brinkman Polytron. The homogenate was centrifuged at 40,000×g for 20 minutes and washed once. The pellett was resuspended in Buffer A, incubated at 37° C. for 15 minutes, then centrifuged. The pellet was washed once more, resuspended to a protein concentration of 5-10 mg/ml in Buffer A and frozen at -70° C. until used.
(§3) The following tritiated drugs were used as radioligands in the binding studies:
[^3 H]-Spiperone 21-24 Ci/mmol for D2 receptors
(§4) [^3 H]-spiperone, [^3 H]-SCH22390, and [^3 H]-ketanserin were obtained from New England Nuclear, Boston, Me.
(§5) The radioligands were incubated with various concentrations of competing drug and the appropriate membrane source for 75 minutes at room temperature for D2 receptors, 15 minutes at 37° C. for D1 receptors, or 30 minutes at room temperature for α2 receptors. Specific binding was defined using 1 μM butaclamol (D2), 1 μM SCH23390 (D1), or 1 μM yohimbine (α2). In addition the D2 assays contained 30 nM ketaserin in order to block the binding of ^3 H-spiperone to 5HT2 receptors. The assays were terminated by filtration using a 24-port Brandell cell harvester over filters that had been previously soaked in 0.1% polyethyleneimine, and the filters were washed three times by filtration of cold buffer. […] The results are presented as Ki values if the data were best fitted to a one-site model, or as KH and KL values if a two-site model produced the better fit.

D1 receptors = target: T3, D1 receptors (Bos taurus, UniProt Q95136); test: D1 receptor specific binding, [3H]-SCH23390; design: species or system bovine
T3 construct: The caudate nuclei were dissected out and homogenized in Buffer A; from tissue; host or cells: bovine caudate nuclei membranes (brains from a local slaughterhouse)
Description: as §1, §2, §3, §4, §5

α2-adrenergic receptors = target: T4, α2-adrenergic receptors (Rattus norvegicus, UniProt P22909); test: α2-adrenergic receptor specific binding, [3H]-Para aminoclonidine
T4 construct: from tissue; host or cells: cerebral cortex membranes of male Sprague Dawley rats
T4 sequence (P22909 1-465): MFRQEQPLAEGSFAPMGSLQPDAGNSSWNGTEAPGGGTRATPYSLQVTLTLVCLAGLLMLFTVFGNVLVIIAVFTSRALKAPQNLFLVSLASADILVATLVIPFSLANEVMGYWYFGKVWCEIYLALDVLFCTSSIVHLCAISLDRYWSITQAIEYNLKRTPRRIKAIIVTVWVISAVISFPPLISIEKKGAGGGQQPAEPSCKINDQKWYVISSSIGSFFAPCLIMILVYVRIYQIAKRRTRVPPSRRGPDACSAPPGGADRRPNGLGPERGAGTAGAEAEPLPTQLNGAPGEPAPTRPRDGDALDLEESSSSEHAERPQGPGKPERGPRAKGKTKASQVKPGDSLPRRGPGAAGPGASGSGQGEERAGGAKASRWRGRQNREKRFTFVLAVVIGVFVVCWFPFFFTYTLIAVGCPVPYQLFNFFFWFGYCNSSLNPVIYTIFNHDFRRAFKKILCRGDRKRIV
Description: as §1
α2-adrenergic receptors assays were conducted using the rat cerebral cortex prepared as follows:
Male Sprague Dawley rats were killed by decapitation and the brains removed. The cerebral cortices were homogenized in 50 mM Tris; 2 mM MgCl2 (pH 7.4), and centrifuged at 40,000×g for 10 minutes. The pellet was washed once, resuspended in Tris/MgCl2 and incubated with 8 units/ml adenosine deaminase at 37° C. for 30 minutes. The homogenate was centrifuged, washed once, resuspended to a protein concentration of 5-10 mg/ml and frozen at -70° C. until use.
as §3
[^3 H]-Para aminoclonidine 48-52 Ci/mmol for α2 -adrenergic receptors.
[^3 H]-paraaminoclonidine was obtained from Amersham, Arlington Heights, Ill. Yohimbine was obtained from Sigma Chemical Co., St. Louis, Mo.
as §5

D-2 dopamine receptor [5] = target: T1, D-2 dopamine receptor; conditions: stated for contrast, no test data given; cited from earlier work
D-1 dopamine receptor = target: T5, D-1 dopamine receptor (Bos taurus, UniProt Q95136); test: displacement of tritium labeled SCH 23390 at the D-1 dopamine receptor, striatum membranes; format: binding; conditions: bovine brain striatum membranes
T5 construct: membranes isolated from the striatum of bovine brain; from tissue; host or cells: bovine brain striatum membranes
Description: The activity at the D-1 dopamine receptor was tested by the method described in Raisman et al. Eur. J. Pharmacol 113: (1985), pp. 467-468, which utilizeds membranes isolated from the striatum of bovine brain. […] Thus, the 1C50 value for the compound of Example 2 is >100,000 at the D-1 receptor.

[6] = bovine caudate nuclei, [3H]-SCH23390, 15 minutes at 37° C., read-out: Ki D1
[7] = rat cerebral cortex, [3H]-Para aminoclonidine, 30 minutes at room temperature, read-out: Ki α2

T3 sequence (Q95136 whole entry): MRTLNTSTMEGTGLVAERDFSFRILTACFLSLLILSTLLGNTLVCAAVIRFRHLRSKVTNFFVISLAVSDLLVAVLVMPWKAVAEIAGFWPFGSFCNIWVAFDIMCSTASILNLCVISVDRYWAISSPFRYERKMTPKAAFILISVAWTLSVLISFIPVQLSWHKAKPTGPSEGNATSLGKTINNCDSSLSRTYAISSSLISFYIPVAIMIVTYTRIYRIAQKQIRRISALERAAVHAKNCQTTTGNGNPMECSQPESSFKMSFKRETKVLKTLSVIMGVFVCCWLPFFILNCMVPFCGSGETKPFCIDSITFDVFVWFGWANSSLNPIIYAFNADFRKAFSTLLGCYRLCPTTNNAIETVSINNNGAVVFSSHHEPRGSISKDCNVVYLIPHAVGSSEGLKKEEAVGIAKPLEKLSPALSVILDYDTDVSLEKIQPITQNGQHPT
T1 sequence (P20288 whole entry): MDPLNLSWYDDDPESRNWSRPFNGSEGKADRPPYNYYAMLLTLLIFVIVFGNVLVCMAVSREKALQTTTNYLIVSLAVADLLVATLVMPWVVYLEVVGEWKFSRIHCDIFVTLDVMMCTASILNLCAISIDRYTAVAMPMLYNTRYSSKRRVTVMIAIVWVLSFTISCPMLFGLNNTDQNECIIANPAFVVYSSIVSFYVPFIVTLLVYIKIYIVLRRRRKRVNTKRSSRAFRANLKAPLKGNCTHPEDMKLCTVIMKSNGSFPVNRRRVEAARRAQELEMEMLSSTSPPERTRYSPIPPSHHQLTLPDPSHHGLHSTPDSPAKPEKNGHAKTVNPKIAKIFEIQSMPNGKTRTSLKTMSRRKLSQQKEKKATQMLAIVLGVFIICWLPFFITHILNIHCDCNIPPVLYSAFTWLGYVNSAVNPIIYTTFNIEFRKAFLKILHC
T2 sequence (P20288 whole entry): as above
T5 sequence (Q95136 whole entry): as the sequence (Q95136 whole entry) above

Structure (SMILES): CNCCc1ccc(O)c(O)c1 [N-methyldopamine]
alteration of ocular function (ocular function): may alter ocular function
mechanism: aqueous humor formation (ocular function): suppressing aqueous humor formation

Structure (SMILES): CCCN(CCC)CCc1ccc(O)c(O)c1 [N,N-di-n-propyldopamine]
alteration of ocular function (ocular function): may alter ocular function

Structure (SMILES): CC(C)C[C@H]1C(=O)N2CCC[C@H]2[C@]2(O)O[C@](NC(=O)[C@@H]3C=C4c5cccc6[nH]c(Br)c(c56)C[C@H]4N(C)C3)(C(C)C)C(=O)N12 [bromocriptine]
intraocular pressure (intraocular pressure [1]): may lower intraocular pressure
intraocular pressure (intraocular pressure [2]): lower the intraocular pressure of rabbits

Structure (SMILES): CCCN(CCc1cccs1)C1CCc2c(O)cccc2C1 (racemic) [2-(N-propyl-N-2-thienylethylamino)-5-hydroxytetralin]
Kd (D-2 dopamine receptor [3]): 1.6 nM
bmax (D-2 dopamine receptor [3]; tritium-containing racemic mixture, calf brain corpus striatum homogenates): 26.0 picomoles/gm

Structure (SMILES): CCCN1C[C@H](CSC)C[C@@H]2c3cccc4[nH]cc(c34)C[C@H]21 [pergolide]
intraocular pressure (intraocular pressure [4]): lowered the intraocular pressure of monkeys
intraocular pressure (intraocular pressure [2]): lower the intraocular pressure of rabbits

Structure (SMILES): CCCN(CCc1cccs1)C1CCc2c(O)cccc2C1 (centres unmarked)
Ki (D2 receptors): 110 nM
Ki (D1 receptors): 1000 nM
Ki (α2-adrenergic receptors): 190 nM

Structure (SMILES): NCCc1ccc(O)c(O)c1 [dopamine]
binding at the D-1 and D-2 receptor (comparison substances) (D-2 dopamine receptor [5]): substantially equivalent binding at the D-1 and D-2 receptor

Ki (D2 receptors): 130 nM
increase in selectivity for D2 receptors (D2 receptors): two-fold
Ki (D1 receptors; [6]): 1950 nM
Structure (SMILES): CCCN(CCc1csc2ccccc12)C1CCc2c(O)cccc2C1 (centres unmarked)
Ki (α2-adrenergic receptors; [7]): 250 nM

Ki (D2 receptors): 80 nM
increase in selectivity for D2 receptors (D2 receptors): six and a half-fold
Ki (D1 receptors; [6]): 6460 nM
Structure (SMILES): CCCN(CCc1ccc2ccccc2c1)C1CCc2c(O)cccc2C1 (centres unmarked)
Ki (α2-adrenergic receptors; [7]): 2500 nM

IC50 (D-2 dopamine receptor [3]; D-2, calf brain corpus striatum homogenates, read-out: IC50 (concentration of drug required to inhibit the binding of labelled drug by 50 percent)): 0.56 nM
IC50 (D-1 dopamine receptor; D-1, tritium labeled SCH 23390, read-out: 1C50 value at the D-1 receptor): > 100 µM
displacement of tritium labeled SCH 23390 (D-1 dopamine receptor; concentration range 10^-11 to 10^-4 moles): did not displace
Structure (SMILES): CCCN(CCc1cc2ccccc2s1)C1CCc2c(O)cccc2C1 (centres unmarked) [Example 2, 2-(N-n-propyl-N-2-[2-benzothienyl]ethylamino)-5-hydroxytetralin]
D-2 as opposed to D-1 binding selectivity (D-2 dopamine receptor [3]; comparison of D-2 and D-1 binding): extremely selective D-2 as opposed to D-1 binding

Structure (SMILES): CN(C)CCc1ccc(O)c(O)c1 [N,N-dimethyl-dopamine]
alteration of ocular function (ocular function): may alter ocular function

Structure (SMILES): CN1CCc2cccc3c2[C@H]1Cc1ccc(O)c(O)c1-3 [apomophine]
binding at the D-1 and D-2 receptor (comparison substances) (D-2 dopamine receptor [5]): substantially equivalent binding at the D-1 and D-2 receptor

Structure (SMILES): CN1C[C@H](CC#N)C[C@@H]2c3cccc4[nH]c(Cl)c(c34)C[C@H]21 [lergotrile]
intraocular pressure (intraocular pressure [4]): lowered the intraocular pressure of monkeys
intraocular pressure (intraocular pressure [2]): lower the intraocular pressure of rabbits
